{"source": "PubChem BioAssay AID1963868", "about": "(Molecular Pharmacology Branch, DTP, NCI, 2024);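 further: spheroids exposed to compounds for seven days before readout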;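 on viability, T/C: 100% = DMSO vehicle control luminescence of the spheroids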", "system": "KRAS PDC tumor spheroids (HUVEC+MSC), viability", "test": "Anticancer human tumor 254851-301-R-J1-PDC patient-derived colon carcinoma cell line growth inhibition [KRAS2]", "settings": "for IC50: curve of first compound; for viability, T/C: stronger effect = lower value", "text": "Multicellular complex tumor spheroid response to RAS pathway inhibitors in combination with a targeted agents in patient-derived cell lines with oncogenic KRAS variants from multiple cancer types\nA high-throughput screen of multi-cell type tumor spheroids was designed to identify active combinations of targeted small molecules and KRAS pathway inhibitors. Complex spheroids include a stromal component modeled by human endothelial cells (HUVEC) and fibroblasts modeled by human mesenchymal stem cells (MSCs). The concentration ranges selected for each drug and investigational agent were based upon clinically achievable concentrations if the clinical Cmax of the agent was known.\nCompounds. The drugs and investigational agents: BI-3406 (NSC825286), BAY-293 (NSC824723), batoprotafib (TNO155; NSC825523), sotorasib (AMG 510; NSC818433), MRTX1257 (NSC819558), elimusertib (BAY 1895344; NSC800525), molibresib (GSK525762; NSC774829), temuterkib (LY3214996; NSC803410), venetoclax (NSC766270), alisertib (NSC759677), olaparib (NSC753686), talazoparib (NSC767125), erdafitinib (NSC781556), ipatasertib (NSC767898), cabozantinib (NSC761068), nintedanib (NSC756659), abemaciclib (NSC768073), docetaxel (NSC628503), trametinib (NSC758246), and sapanisertib (NSC764658) were obtained from the National Cancer Institute (NCI) Developmental Therapeutics Program Chemical Repository. The FDA-approved anticancer drug set is available from the Developmental Therapeutics Program. […] The stock solutions were prepared in dimethyl sulfoxide (DMSO, Sigma-Aldrich, St. Louis, MO, cat. D2650) at 800-fold the tested concentration and stored at -70 degrees C prior to their use. All drugs and investigational agents were tested over a range starting from a high concentration at or near the clinical Cmax and decreasing in half-log increments. If the clinical Cmax for an agent had not been determined, the highest concentration tested was 10 microM.\nCell Culture. All cells were maintained in an incubator at 37 degrees C and 5% CO2 with 95% humidity. The PDC lines were cultured according to standard operating procedures established by the NCI PDMR (https://pdmr.cancer.gov/sops/default.htm). Briefly, all PDCs were thawed and cultured in Matrigel-coated flasks prepared with a working solution of 1X Ham's F-12 nutrient mix, without supplementation (Invitrogen, Waltham, MA, cat. 11765054), 100 U/mL penicillin-streptomycin (Invitrogen, cat. 15140122), and 2.5% Matrigel (Corning Inc., Corning, NY, cat. 354248) for the first three passages. All PDCs were cultured in complete DMEM/F-12 media containing advanced DMEM/F-12 (Invitrogen, cat. 12634028), 4.9% defined fetal bovine serum, heat inactivated (HyClone Laboratories Inc., Logan, UT, cat. SH30070.03HI), 389 ng/mL hydrocortisone (Sigma-Aldrich, cat. H4001), 9.7 ng/mL human EGF recombinant protein (Invitrogen, cat. PHG0313), 23.4 microg/mL adenine (Sigma-Aldrich, cat. A2786), 97.3 U/mL penicillin-streptomycin (Invitrogen, cat. 15140122), 1.9 mM L-glutamine (Invitrogen, cat. 25030081), and 9.7 microM Y-27632 dihydrochloride (Tocris Bioscience, Bristol, United Kingdom, cat. 1254). The PDCs were cultured in complete DMEM/F12 media without 9.7 microM Y-27632 dihydrochloride for at least two passages prior to the screen. The established cell line HOP-62 was cultured in RPMI 1640 medium, HEPES (Invitrogen, cat. 22400105) with 10% defined fetal bovine serum (HyClone Laboratories Inc., cat. SH30070.03) and 2 mM L-glutamine (Invitrogen, cat. 25030081). The pooled donor HUVEC were cultured in endothelial cell growth medium 2 (PromoCell, Heidelberg, Germany, cat. C-22011) and the hMSC were cultured in mesenchymal stem cell growth medium 2 (PromoCell, cat. C-28009). For all experiments, HUVEC and hMSC were used at passages </=5, while the malignant cell lines were used at passages </=15. […]", "key": {"[1]": {"settings": "second compound 0.1 µM, first compound 0.0316 µM"}, "[2]": {"settings": "second compound 0.1 µM, first compound 0.1 µM"}, "[3]": {"settings": "second compound 0.316 µM, first compound 0.0316 µM"}, "[4]": {"settings": "second compound 0.316 µM, first compound 0.1 µM"}, "[5]": {"settings": "second compound 1 µM, first compound 0.0316 µM"}, "[6]": {"settings": "second compound 1 µM, first compound 0.1 µM"}, "[7]": {"settings": "second compound 3.16 µM, first compound 0.0316 µM"}, "[8]": {"settings": "second compound 3.16 µM, first compound 0.1 µM"}, "[9]": {"settings": "second compound 10 µM, first compound 0.0316 µM"}, "[10]": {"settings": "second compound 10 µM, first compound 0.1 µM"}}}
{"smiles": "CC(C)n1nc(-c2ccc3oc(N)nc3c2)c2c(N)ncnc21", "note": "+ C=CC(=O)N1CCN(c2nc(=O)n(-c3c(C)ccnc3C(C)C)c3nc(-c4c(O)cccc4F)c(F)cc23)C(C)C1", "values": [{"measurement": "IC50", "setting": "second compound 0.1 µM", "value": 19.1, "unit": "nM"}, {"measurement": "IC50", "setting": "second compound 0.316 µM", "value": 21.6, "unit": "nM"}, {"measurement": "IC50", "setting": "second compound 1 µM", "value": 13.3, "unit": "nM"}, {"measurement": "IC50", "setting": "second compound 3.16 µM", "value": 20.1, "unit": "nM"}, {"measurement": "IC50", "setting": "second compound 10 µM", "value": 18.1, "unit": "nM"}, {"measurement": "viability, T/C", "setting": "second compound 0.1 µM, first compound 0.000316 µM", "value": 107, "unit": "%"}, {"measurement": "viability, T/C", "setting": "second compound 0.1 µM, first compound 0.001 µM", "value": 110, "unit": "%"}, {"measurement": "viability, T/C", "setting": "second compound 0.1 µM, first compound 0.00316 µM", "value": 92.8, "unit": "%"}, {"measurement": "viability, T/C", "setting": "second compound 0.1 µM, first compound 0.01 µM", "value": 72.8, "unit": "%"}, {"measurement": "viability, T/C", "setting": "[1]", "value": 32.3, "unit": "%"}, {"measurement": "viability, T/C", "setting": "[2]", "value": 19.8, "unit": "%"}, {"measurement": "viability, T/C", "setting": "second compound 0.316 µM, first compound 0.000316 µM", "value": 105, "unit": "%"}, {"measurement": "viability, T/C", "setting": "second compound 0.316 µM, first compound 0.001 µM", "value": 104, "unit": "%"}, {"measurement": "viability, T/C", "setting": "second compound 0.316 µM, first compound 0.00316 µM", "value": 97.7, "unit": "%"}, {"measurement": "viability, T/C", "setting": "second compound 0.316 µM, first compound 0.01 µM", "value": 71.2, "unit": "%"}, {"measurement": "viability, T/C", "setting": "[3]", "value": 39.8, "unit": "%"}, {"measurement": "viability, T/C", "setting": "[4]", "value": 23.1, "unit": "%"}, {"measurement": "viability, T/C", "setting": "second compound 1 µM, first compound 0.000316 µM", "value": 116, "unit": "%"}, {"measurement": "viability, T/C", "setting": "second compound 1 µM, first compound 0.001 µM", "value": 113, "unit": "%"}, {"measurement": "viability, T/C", "setting": "second compound 1 µM, first compound 0.00316 µM", "value": 102, "unit": "%"}, {"measurement": "viability, T/C", "setting": "second compound 1 µM, first compound 0.01 µM", "value": 54.7, "unit": "%"}, {"measurement": "viability, T/C", "setting": "[5]", "value": 34.3, "unit": "%"}, {"measurement": "viability, T/C", "setting": "[6]", "value": 21.9, "unit": "%"}, {"measurement": "viability, T/C", "setting": "second compound 3.16 µM, first compound 0.000316 µM", "value": 103, "unit": "%"}, {"measurement": "viability, T/C", "setting": "second compound 3.16 µM, first compound 0.001 µM", "value": 117, "unit": "%"}, {"measurement": "viability, T/C", "setting": "second compound 3.16 µM, first compound 0.00316 µM", "value": 89.7, "unit": "%"}, {"measurement": "viability, T/C", "setting": "second compound 3.16 µM, first compound 0.01 µM", "value": 73.5, "unit": "%"}, {"measurement": "viability, T/C", "setting": "[7]", "value": 34.7, "unit": "%"}, {"measurement": "viability, T/C", "setting": "[8]", "value": 22.8, "unit": "%"}, {"measurement": "viability, T/C", "setting": "second compound 10 µM, first compound 0.000316 µM", "value": 98.9, "unit": "%"}, {"measurement": "viability, T/C", "setting": "second compound 10 µM, first compound 0.001 µM", "value": 109, "unit": "%"}, {"measurement": "viability, T/C", "setting": "second compound 10 µM, first compound 0.00316 µM", "value": 88.5, "unit": "%"}, {"measurement": "viability, T/C", "setting": "second compound 10 µM, first compound 0.01 µM", "value": 66.4, "unit": "%"}, {"measurement": "viability, T/C", "setting": "[9]", "value": 35.1, "unit": "%"}, {"measurement": "viability, T/C", "setting": "[10]", "value": 24, "unit": "%"}]}
{"smiles": "COc1cc2nccc(Oc3ccc(NC(=O)C4(C(=O)Nc5ccc(F)cc5)CC4)cc3)c2cc1OC", "note": "+ C=CC(=O)N1CCN(c2nc(=O)n(-c3c(C)ccnc3C(C)C)c3nc(-c4c(O)cccc4F)c(F)cc23)C(C)C1", "values": [{"measurement": "IC50", "setting": "second compound 0.1 µM", "value": "> 10000", "unit": "nM"}, {"measurement": "IC50", "setting": "second compound 0.316 µM", "value": "> 10000", "unit": "nM"}, {"measurement": "IC50", "setting": "second compound 1 µM", "value": "> 10000", "unit": "nM"}, {"measurement": "IC50", "setting": "second compound 3.16 µM", "value": "> 10000", "unit": "nM"}, {"measurement": "IC50", "setting": "second compound 10 µM", "value": "> 10000", "unit": "nM"}, {"measurement": "viability, T/C", "setting": "[1]", "value": 108, "unit": "%"}, {"measurement": "viability, T/C", "setting": "[2]", "value": 102, "unit": "%"}, {"measurement": "viability, T/C", "setting": "second compound 0.1 µM, first compound 0.316 µM", "value": 99.3, "unit": "%"}, {"measurement": "viability, T/C", "setting": "second compound 0.1 µM, first compound 1 µM", "value": 110, "unit": "%"}, {"measurement": "viability, T/C", "setting": "second compound 0.1 µM, first compound 3.16 µM", "value": 104, "unit": "%"}, {"measurement": "viability, T/C", "setting": "second compound 0.1 µM, first compound 10 µM", "value": 65.9, "unit": "%"}, {"measurement": "viability, T/C", "setting": "[3]", "value": 104, "unit": "%"}, {"measurement": "viability, T/C", "setting": "[4]", "value": 107, "unit": "%"}, {"measurement": "viability, T/C", "setting": "second compound 0.316 µM, first compound 0.316 µM", "value": 113, "unit": "%"}, {"measurement": "viability, T/C", "setting": "second compound 0.316 µM, first compound 1 µM", "value": 110, "unit": "%"}, {"measurement": "viability, T/C", "setting": "second compound 0.316 µM, first compound 3.16 µM", "value": 99.4, "unit": "%"}, {"measurement": "viability, T/C", "setting": "second compound 0.316 µM, first compound 10 µM", "value": 57.4, "unit": "%"}, {"measurement": "viability, T/C", "setting": "[5]", "value": 109, "unit": "%"}, {"measurement": "viability, T/C", "setting": "[6]", "value": 115, "unit": "%"}, {"measurement": "viability, T/C", "setting": "second compound 1 µM, first compound 0.316 µM", "value": 113, "unit": "%"}, {"measurement": "viability, T/C", "setting": "second compound 1 µM, first compound 1 µM", "value": 103, "unit": "%"}, {"measurement": "viability, T/C", "setting": "second compound 1 µM, first compound 3.16 µM", "value": 104, "unit": "%"}, {"measurement": "viability, T/C", "setting": "second compound 1 µM, first compound 10 µM", "value": 74.8, "unit": "%"}, {"measurement": "viability, T/C", "setting": "[7]", "value": 114, "unit": "%"}, {"measurement": "viability, T/C", "setting": "[8]", "value": 112, "unit": "%"}, {"measurement": "viability, T/C", "setting": "second compound 3.16 µM, first compound 0.316 µM", "value": 111, "unit": "%"}, {"measurement": "viability, T/C", "setting": "second compound 3.16 µM, first compound 1 µM", "value": 117, "unit": "%"}, {"measurement": "viability, T/C", "setting": "second compound 3.16 µM, first compound 3.16 µM", "value": 108, "unit": "%"}, {"measurement": "viability, T/C", "setting": "second compound 3.16 µM, first compound 10 µM", "value": 72.1, "unit": "%"}, {"measurement": "viability, T/C", "setting": "[9]", "value": 131, "unit": "%"}, {"measurement": "viability, T/C", "setting": "[10]", "value": 115, "unit": "%"}, {"measurement": "viability, T/C", "setting": "second compound 10 µM, first compound 0.316 µM", "value": 111, "unit": "%"}, {"measurement": "viability, T/C", "setting": "second compound 10 µM, first compound 1 µM", "value": 112, "unit": "%"}, {"measurement": "viability, T/C", "setting": "second compound 10 µM, first compound 3.16 µM", "value": 90.8, "unit": "%"}, {"measurement": "viability, T/C", "setting": "second compound 10 µM, first compound 10 µM", "value": 62.6, "unit": "%"}]}
